Values joined by “and” are separate entries in the source; they are usually repeats but may differ in a detail not shown here. Equal values may be shown once.
How the values were obtained:
[1] = tested on: DNA labelled with tritium; assay: DNA-strand cleaving activity in cell-free system; type: biochemical; conditions: copper-free compound with divalent iron, oxygen, 37° C., 5 minutes
Description: 2. DNA-strand cleaving activity in cell-free system.
The mechanism of carcinostatic action of bleomycins has been believed to involve the cleavage of DNA chain caused by the joint action of copper-free bleomycins, divalent iron and molecular oxygen. Similar activity of N-methylbleomycins were also confirmed.
A mixture of divalent iron and a copper-free N-methylbleomycin was dissolved together with DNA labelled with tritium in a M/10 phosphate buffer of pH 7.4 The resulting solution was allowed to react in the presence of oxygen at 37° C. for 5 minutes. To the reaction mixture, was added 25% trichloroacetic acid. The precipitate was removed by centrifugation and the supernatant (acid-soluble fraction) was assayed for radioactivity to obtain the percentage of acid-soluble DNA in acid. This percentage was utilized as an index of the degree of DNA-strand cleavage. Similar test was repeated on bleomycins A2 and B2 used as reference.

[2] = tested on: Mycobacterium smegmatis ATCC 607; assay: Antimicrobial activity against Mycobacterium smegmatis ATCC 607 (cylinder agar plate method); type: cell-based
Description: 4. Antimicrobial activity against Mycobacterium smegmatis ATCC 607.
The antibacterial activity was assayed by the cylinder agar plate method against the above bacterium by assuming the activity of standard copper-free bleomycin A2 to be 1,000 mcg units/mg.
Note: Antimicrobial activity was assayed against Mycobacterium smegmatis ATCC 607 by assuming the activity of bleomycin A2 (copper-free form) to be 1,000 mcg units/mg. The same shall apply hereinafter.

[3] = tested on: HeLa S3 cells; assay: Growth inhibitory effect on cultured HeLa cells; type: cell-based; conditions: Cu-free; three days cultivation with sample
Description: 3. Growth inhibitory effect on cultured HeLa cells.
HeLa S3 cells were inoculated into a medium (MEM with the addition of 10% calf serum) in a plastic Petri dish. After two days from the inoculation, N-methylbleomycinic acid or a N-methylbleomycin was added to the dish and after cultivation for further three days, the number of cells was counted. The growth inhibition (%) was calculated by the following equation: [formula] where A is the final number of cells on the third day from the addition of the test sample, B the final number of cells in a control culture without the addition of the test sample, and C the number of cells at the time of addition of the test sample. The value of ID50 (concentration for 50% inhibition) was calculated from the graph obtained by plotting the concentration of sample against the growth inhibition. A similar test was performed on bleomycinic acid and bleomycins used as control.

[4] = biological target: inactivating enzyme (Rattus norvegicus, UniProt P70645); conditions: rat liver extract, 37° C., 15, 30, 60 and 120 minutes; residual activity against Mycobacterium smegmatis ATCC 607
Description: Test for resistance to inactivating enzyme.
(1) Extraction of inactivating enzyme.
The liver of female Donryu strain rat was ground in twice by weight of M/15 phosphate buffer of pH 7.2 to prepare a tissue emulsion. The emulsion was centrifuged at 105,000×G for 60 minutes and the supernatant was dialyzed with the above buffer. A high molecular fraction thus obtained was used as the extract solution of an inactivating enzyme.
(2) Examination of inactivating reaction.

[5] = sample concentration 6.25 mcg/ml
[6] = sample concentration 12.5 mcg/ml
[7] = Table 6, Cu-complex, standard copper-free bleomycin A2 assumed 1,000 mcg units/mg
[8] = Table 6, Cu-free, standard copper-free bleomycin A2 assumed 1,000 mcg units/mg
[9] = Examples, step A product: copper complex hydrochloride, bleomycin A2 (copper-free form) assumed 1,000 mcg units/mg
[10] = Examples, step B product: copper-free hydrochloride, bleomycin A2 (copper-free form) assumed 1,000 mcg units/mg

inactivating enzyme, sequence (P70645 whole entry): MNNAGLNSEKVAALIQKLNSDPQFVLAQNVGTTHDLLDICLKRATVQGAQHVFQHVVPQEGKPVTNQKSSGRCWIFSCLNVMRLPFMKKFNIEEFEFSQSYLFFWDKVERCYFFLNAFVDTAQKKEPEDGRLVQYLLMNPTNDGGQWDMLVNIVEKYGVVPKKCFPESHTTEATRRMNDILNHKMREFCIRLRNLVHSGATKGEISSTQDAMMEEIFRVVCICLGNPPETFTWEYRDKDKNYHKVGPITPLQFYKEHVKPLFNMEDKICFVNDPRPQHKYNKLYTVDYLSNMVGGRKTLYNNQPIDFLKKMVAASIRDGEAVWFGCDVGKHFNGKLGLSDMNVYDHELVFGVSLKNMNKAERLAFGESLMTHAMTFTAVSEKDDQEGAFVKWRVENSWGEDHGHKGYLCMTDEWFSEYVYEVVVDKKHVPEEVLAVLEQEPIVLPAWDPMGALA

| Molecule | Acid-soluble DNA (%) [1, 5] | Acid-soluble DNA (%) [1, 6] | Acid-soluble DNA (%) ([1]; sample concentration 25 mcg/ml) | Antimicrobial activity [2, 7] | Antimicrobial activity [2, 8] | 50% growth inhibitory concentration (ID50) against cultured HeLa S3 cells [3] | Antimicrobial activity [2, 9] | Antimicrobial activity [2, 10] | Resistance to inactivating enzyme (residual activity with reaction time, FIGS. 1 to 6) [4] |
| --- | --- | --- | --- | --- | --- | --- | --- | --- | --- |
| 3-(3-n-butylaminopropylamino)propylamino-N-methylbleomycin [Compound (6)] | 59.5% | 94.0% | 100.4% | 3,695 mcg units/mg | 3,438 mcg units/mg | 0.37 µg/mL | – | – | – |
| 3-(3-n-butylaminopropylamino)propylaminobleomycin [reference compound] | – | – | – | – | – | 0.43 µg/mL | – | – | – |
| 3-[(S)-1'-phenylethylamino]propylamino-N-methylbleomycin [Compound (5)] | 70.1% | 92.6% | 100.5% | 4,266 mcg units/mg | 4,333 mcg units/mg | 0.30 µg/mL | 4,320 mcg units/mg | 4,280 mcg units/mg | – |
| Cc1c(N)nc(C(CC(N)=O)NCC(N)C(N)=O)nc1C(=O)NC(C(=O)NC(C)C(O)C(C)C(=O)NC(C(=O)NCCc1nc(-c2nc(C(=O)NCCCNC(C)c3ccccc3)cs2)cs1)C(C)O)C(OC1OC(CO)C(O)C(O)C1OC1OC(CO)C(O)C(OC(N)=O)C1O)c1c[nH]cn1 [3-[(S)-1'-phenylethylamino]propylaminobleomycin, reference compound] | – | – | – | – | – | 0.52 µg/mL | – | – | – |
| Cc1c(N)nc([C@H](CC(N)=O)NC[C@H](N)C(N)=O)nc1C(=O)N[C@H](C(=O)N[C@H](C)[C@@H](O)[C@H](C)C(=O)N[C@H](C(=O)NCCc1nc(-c2nc(C(=O)NCCCN)cs2)cs1)[C@@H](C)O)[C@@H](O[C@@H]1O[C@@H](CO)[C@@H](O)[C@H](O)[C@@H]1O[C@H]1O[C@H](CO)[C@@H](O)[C@H](OC(N)=O)[C@@H]1O)c1cnc[nH]1 [Bleomycin A2 -b, bleomycin A2 '-b, reference compound] | – | – | – | – | – | 1.5 µg/mL | – | – | – |
| Cc1c(N)nc([C@H](CC(N)=O)NC[C@H](N)C(N)=O)nc1C(=O)N[C@H](C(=O)N[C@H](C)[C@@H](O)[C@H](C)C(=O)N[C@H](C(=O)NCCc1nc(-c2nc(C(=O)NCCC[S+](C)C)cs2)cs1)[C@@H](C)O)[C@@H](O[C@@H]1O[C@@H](CO)[C@@H](O)[C@H](O)[C@@H]1O[C@H]1O[C@H](CO)[C@@H](O)[C@H](OC(N)=O)[C@@H]1O)c1c[nH]cn1.[Br-] [Bleomycin A2, reference compound] | 78.6% | 90.8% | 100.9% | – | – | 0.73 µg/mL | – | – | – |
| Cc1c(N)nc(C(CC(N)=O)NCC(N)C(N)=O)nc1C(=O)NC(C(=O)NC(C)C(O)C(C)C(=O)NC(C(=O)NCCc1nc(-c2nc(C(=O)O)cs2)cs1)C(C)O)C(OC1OC(CO)C(O)C(O)C1OC1OC(CO)C(O)C(OC(N)=O)C1O)c1cnc[nH]1 (centres unmarked) [Bleomycinic acid, reference compound] | – | – | – | – | – | 18 µg/mL | – | – | markedly susceptible |
| Bleomycin B2 [reference compound] | 85.6% | 95.8% | 98.2% | – | – | 0.80 µg/mL | – | – | – |
| N-methylbleomycin A2 '-b [Compound (4)] | 61.7% | 94.1% | 99.4% | 625 mcg units/mg | 595 mcg units/mg | 0.58 µg/mL | – | 618 mcg units/mg | – |
| N-methylbleomycin A2 [Compound (2)] | 64.6% | 90.7% | 99.9% | 423 mcg units/mg | 513 mcg units/mg | 0.81 µg/mL | 520 mcg units/mg and 516 mcg units/mg and 507 mcg units/mg | 418 mcg units/mg and 427 mcg units/mg and 420 mcg units/mg | – |
| N-methylbleomycin B2 [Compound (3)] | 87.6% | 95.5% | 102.1% | 1,755 mcg units/mg | 1,766 mcg units/mg | 0.35 µg/mL | 1,758 mcg units/mg and 1,770 mcg units/mg | 1,752 mcg units/mg and 1,756 mcg units/mg | – |
| N-methylbleomycinic acid [Compound (1)] | – | – | – | 64 mcg units/mg | 59 mcg units/mg | 4.8 µg/mL | – | – | – |

Reference: patent publication US4267102A, “Bleomycin group antibiotics” (Nippon Kayaku Kabushiki Kaisha, priority 1979, dated 1981)
